Test system: HIV NL4-3 wt
Assay: MT4 antiviral assay, NL4-3 strain wild type
Assay type: cell-based, HIV-1
Conditions: Human immunodeficiency virus 1, NL43; MT4 cells; read-out: EC50 NL4-3 wt

Row | Compound | EC50 [nM]
1 | CC(C)C1=C2[C@H]3CC[C@@H]4[C@@]5(C)CC[C@H](OC(=O)CC(C)(C)C(=O)O)C(C)(C)[C@@H]5CC[C@@]4(C)[C@]3(C)CC[C@@]2([C@H](O)CNCc2ccc(Cl)cc2)CC1=O [Example 15, 4-(((3aR,5aR,5bR,7aR,9S,11aR,11bR,13aS)-3a-((S)-2-((4-Chlorobenzyl)amino)-1-hydroxyethyl)-1-isopropyl-5a,5b,8,8,11a-pentamethyl-2-oxo-3,3a,4,5,5a,5b,6,7,7a,8,9,10,11,11a,11b,12,13,13a-octadecahydro-2H-cyclopenta[a]chrysen-9-yl)oxy)-2,2-dimethyl-4-oxobutanoic acid] | 6.9
2 | CC(=O)O[C@@H](CNCc1ccc(Cl)cc1)[C@@]12CC[C@]3(C)[C@H](CC[C@@H]4[C@@]5(C)CC[C@H](OC(=O)CC(C)(C)C(=O)O)C(C)(C)[C@@H]5CC[C@]43C)C1=C(C(C)C)C(=O)C2 [Example 16, 4-(((3aR,5aR,5bR,7aR,9S,11aR,11bR,13aS)-3a-((R)-1-Acetoxy-2-((4-chlorobenzyl)amino)ethyl)-1-isopropyl-5a,5b,8,8,11a-pentamethyl-2-oxo-3,3a,4,5,5a,5b,6,7,7a,8,9,10,11,11a,11b,12,13,13a-octadecahydro-2H-cyclopenta[a]chrysen-9-yl)oxy)-2,2-dimethyl-4-oxobutanoic acid] | 11
3 | CC(=O)O[C@H](CNCc1ccc(Cl)cc1)[C@@]12CC[C@]3(C)[C@H](CC[C@@H]4[C@@]5(C)CC[C@H](OC(=O)CC(C)(C)C(=O)O)C(C)(C)[C@@H]5CC[C@]43C)C1=C(C(C)C)C(=O)C2 [Example 17, 4-(((3aR,5aR,5bR,7aR,9S,11aR,11bR,13aS)-3a-((S)-1-Acetoxy-2-((4-chlorobenzyl)amino)ethyl)-1-isopropyl-5a,5b,8,8,11a-pentamethyl-2-oxo-3,3a,4,5,5a,5b,6,7,7a,8,9,10,11,11a,11b,12,13,13a-octadecahydro-2H-cyclopenta[a]chrysen-9-yl)oxy)-2,2-dimethyl-4-oxobutanoic acid] | 8.7
4 | CC(=O)O[C@H](CN(CCN(C)C)Cc1ccc(Cl)cc1)[C@@]12CC[C@]3(C)[C@H](CC[C@@H]4[C@@]5(C)CC[C@H](OC(=O)CC(C)(C)C(=O)O)C(C)(C)[C@@H]5CC[C@]43C)C1=C(C(C)C)C(=O)C2 [Example 20, 4-(((3aR,5aR,5bR,7aR,9S,11aR,11bR,13aS)-3a-((S)-1-Acetoxy-2-((4-chlorobenzyl)(2-(dimethylamino)ethyl)amino)ethyl)-1-isopropyl-5a,5b,8,8,11a-pentamethyl-2-oxo-3,3a,4,5,5a,5b,6,7,7a,8,9,10,11,11a,11b,12,13,13a-octadecahydro-2H-cyclopenta[a]chrysen-9-yl)oxy)-2,2-dimethyl-4-oxobutanoic acid] | 2.3
5 | CC(=O)O[C@@H](CN(CCN(C)C)Cc1ccc(Cl)cc1)[C@@]12CC[C@]3(C)[C@H](CC[C@@H]4[C@@]5(C)CC[C@H](OC(=O)CC(C)(C)C(=O)O)C(C)(C)[C@@H]5CC[C@]43C)C1=C(C(C)C)C(=O)C2 [Example 21, 4-(((3aR,5aR,5bR,7aR,9S,11aR,11bR,13aS)-3a-((R)-1-Acetoxy-2-((4-chlorobenzyl)(2-(dimethylamino)ethyl)amino)ethyl)-1-isopropyl-5a,5b,8,8,11a-pentamethyl-2-oxo-3,3a,4,5,5a,5b,6,7,7a,8,9,10,11,11a,11b,12,13,13a-octadecahydro-2H-cyclopenta[a]chrysen-9-yl)oxy)-2,2-dimethyl-4-oxobutanoic acid] | 76.5
6 | CC(C)C1=C2[C@H]3CC[C@@H]4[C@@]5(C)CC[C@H](OC(=O)CC(C)(C)CC(=O)O)C(C)(C)[C@@H]5CC[C@@]4(C)[C@]3(C)CC[C@@]2([C@@H](O)CN(CCN(C)C)Cc2ccc(Cl)cc2)CC1=O [Example 22, 5-(((3aR,5aR,5bR,7aR,9S,11aR,11bR,13aS)-3a-((R)-2-((4-Chlorobenzyl)(2-(dimethylamino)ethyl)amino)-1-hydroxyethyl)-1-isopropyl-5a,5b,8,8,11a-pentamethyl-2-oxo-3,3a,4,5,5a,5b,6,7,7a,8,9,10,11,11a,11b,12,13,13a-octadecahydro-2H-cyclopenta[a]chrysen-9-yl)oxy)-3,3-dimethyl-5-oxopentanoic acid] | 3.3
